Laboratory results published in patent US8178530B2, “Imidazolopyrazine compounds useful for the treatment of degenerative and inflammatory diseases” (Janssen Pharmaceutica NV, priority 2006, dated 2012).

System: MMP1 expression by SFs
Test: 'MMP assay': MMP1 expression by 'complex trigger' activated synovial fibroblasts (MMP1 ELISA)
Format: cell-based, human
Details: Homo sapiens, Fibroblast, RASFs, 48 hrs

**Q.** How did the EC50 turn out when `CN1CCC(COc2ccc(Nc3ncc(-c4ccc(C(N)=O)c(F)c4)n4ccnc34)cc2)CC1` [Compound 159, 2-Fluoro-4-{8-[4-(1-methyl-piperidin-4-ylmethoxy)-phenylamino]-imidazo[1,2-a]pyrazin-5-yl}-benzamide] was run?
**A.** 0.101 to 0.5 µM

**Q.** How did the EC50 turn out when `CN1CCN(c2ccc(Nc3ncc(-c4ccc(C(N)=O)cn4)n4ccnc34)cc2)CC1` [Compound 128] was run?
**A.** > 1 µM

**Q.** Which EC50 does the source give for `CN1CCN(c2ccc(Nc3ncc(-c4ccc(C(N)=O)c(Cl)c4)n4ccnc34)cc2)CC1` [Compound 124] here?
**A.** > 1 µM

**Q.** How did the EC50 turn out when `CCN(CC)CCNC(=O)c1ccc(Nc2ncc(-c3cn[nH]c3)n3ccnc23)c(F)c1` [Compound 83] was run?
**A.** > 1 µM

**Q.** Which EC50 does the source give for `CC(C)N1CCN(c2ccc(Nc3ncc(-c4coc(C(N)=O)c4)n4ccnc34)cc2)CC1` [Compound 204, 4-{8-[4-(4-Isopropyl-piperazin-1-yl)-phenylamino]-imidazo[1,2-a]pyrazin-5-yl}-furan-2-carboxylic acid amide] here?
**A.** 0.501 to 1 µM

**Q.** For `CN(C)c1ccc(CNC(=O)c2ccc(Nc3ncc(-c4cn[nH]c4)n4ccnc34)cc2)cc1` [Compound 89], which EC50 is on record?
**A.** 0.501 to 1 µM

**Q.** Which EC50 does the source give for `CN1CCC(NC(=O)c2ccc(Nc3ncc(-c4cn[nH]c4)n4ccnc34)cc2)C1` (stereo not shown) [Compound 64] here?
**A.** > 1 µM

**Q.** `CCN(CC)CCNS(=O)(=O)c1ccc(Nc2ncc(-c3cn[nH]c3)n3ccnc23)cc1` [Compound 69, N-(2-Diethylaminoethyl)-4-[5-(1H-pyrazol-4-yl)imidazo[1,2-a]pyrazin-8-ylamino]benzenesulfonamide] was tested. Which EC50 did it give?
**A.** > 1 µM

**Q.** With `CN(C)Cc1cn(-c2ccc(Nc3ncc(-c4ccc(C(N)=O)cc4)n4ccnc34)cc2)nn1` [Compound 166, 4-{8-[4-(4-Dimethylaminomethyl-[1,2,3]triazol-1-yl)-phenylamino]-imidazo[1,2-a]pyrazin-5-yl}-benzamide] as the molecule, how does the EC50 read?
**A.** > 1 µM

**Q.** With `c1cn2c(-c3cn[nH]c3)cnc(Nc3ccc(OCCN4CCOCC4)cc3)c2n1` [Compound 150, [4-(2-Morpholin-4-yl-ethoxy)-phenyl]-[5-(1H-pyrazol-4-yl)-imidazo[1,2-a]pyrazin-8-yl]-amine] as the molecule, how does the EC50 read?
**A.** > 1 µM

**Q.** Which EC50 does the source give for `CN1CCN(c2ccc(Nc3ncc(-c4ccnc(F)c4)n4ccnc34)cc2)CC1` [Compound 125, [5-(2-Fluoro-pyridin-4-yl)-imidazo[1,2-a]pyrazin-8-yl]-[4-(4-methyl-piperazin-1-yl)-phenyl]-amine] here?
**A.** > 1 µM

**Q.** With `c1cn2c(-c3cn[nH]c3C3CC3)cnc(Nc3ccc(N4CCOCC4)cc3)c2n1` [Compound 160, [5-(5-Cyclopropyl-1H-pyrazol-4-yl)-imidazo[1,2-a]pyrazin-8-yl]-(4-morpholin-4-yl-phenyl)-amine] as the molecule, how does the EC50 read?
**A.** > 1 µM

**Q.** Which EC50 does the source give for `C[C@@H]1CN(c2ccc(Nc3ncc(-c4cc(C(N)=O)co4)n4ccnc34)cc2)[C@@H](C)CN1C` [Compound 187] here?
**A.** 0.101 to 0.5 µM

**Q.** With `CN1CCN(c2ccc(Nc3ncc(-c4cc(C(N)=O)co4)n4ccnc34)cc2)CC1` [Compound 151] as the molecule, how does the EC50 read?
**A.** 0.101 to 0.5 µM

**Q.** For `CN1CCN(c2ccc(Nc3ncc(-c4cc(F)c(C(N)=O)c(F)c4)n4ccnc34)cc2)CC1` [Compound 140], which EC50 is on record?
**A.** > 1 µM

**Q.** With `c1cn(-c2ccc(Nc3ncc(-c4cn[nH]c4)n4ccnc34)cc2)cn1` [Compound 168, (4-Imidazol-1-yl-phenyl)-[5-(1H-pyrazol-4-yl)-imidazo[1,2-a]pyrazin-8-yl]-amine] as the molecule, how does the EC50 read?
**A.** > 1 µM

**Q.** With `Cn1nnc(-c2ccc(Nc3ncc(-c4cn[nH]c4)n4ccnc34)cc2)n1` [Compound 169, [4-(2-Methyl-2H-tetrazol-5-yl)-phenyl]-[5-(1H-pyrazol-4-yl)-imidazo[1,2-a]pyrazin-8-yl]-amine] as the molecule, how does the EC50 read?
**A.** 0.101 to 0.5 µM

**Q.** For `Cc1oc(-c2cnc(Nc3ccc(N4CCOCC4)cc3)c3nccn23)cc1C(N)=O` [Compound 188], which EC50 is on record?
**A.** 0.501 to 1 µM

**Q.** For `CN1CCN(c2ccc(Nc3ncc(-c4cc(C(N)=O)cs4)n4ccnc34)cc2)CC1` [Compound 145, 5-{8-[4-(4-Methyl-piperazin-1-yl)-phenylamino]-imidazo[1,2-a]pyrazin-5-yl}-thiophene-3-carboxylic acid amide], which EC50 is on record?
**A.** 0.501 to 1 µM

**Q.** With `Cc1[nH]ncc1-c1cnc(Nc2ccc(N3CCOCC3)cc2)c2nccn12` [Compound 176] as the molecule, how does the EC50 read?
**A.** > 1 µM

**Q.** `O=C(NC1CCNC1)c1ccc(Nc2ncc(-c3cn[nH]c3)n3ccnc23)cc1` (stereo not shown) [Compound 55] was tested. Which EC50 did it give?
**A.** > 1 µM

**Q.** Which EC50 does the source give for `NC(=O)c1c(F)cc(-c2cnc(Nc3ccc(N4CCOCC4)cc3)c3nccn23)cc1F` [Compound 165] here?
**A.** > 1 µM

**Q.** `NC(=O)c1ccc(-c2cnc(Nc3ccc(N4CCN(CCO)CC4)cc3)c3nccn23)cc1` [Compound 156] was tested. Which EC50 did it give?
**A.** 0.101 to 0.5 µM

**Q.** For `CN1CCN(c2ccc(Nc3ncc(-c4cscn4)n4ccnc34)cc2)CC1` [Compound 138], which EC50 is on record?
**A.** > 1 µM

**Q.** Which EC50 does the source give for `CCN(CC)CCNS(=O)(=O)c1ccc(Nc2ncc(-c3ccc(C(N)=O)cc3)n3ccnc23)cc1` [Compound 98] here?
**A.** 0.501 to 1 µM

**Q.** For `NC(=O)c1ccc(-c2cnc(Nc3ccc(OCCN4CCOCC4)cc3)c3nccn23)cc1F` [Compound 146], which EC50 is on record?
**A.** 0.501 to 1 µM

**Q.** With `CCN(CC)CCNC(=O)c1ccc(Nc2ncc(-c3cn[nH]c3)n3ccnc23)cc1F` [Compound 82] as the molecule, how does the EC50 read?
**A.** > 1 µM

**Q.** `CN1CCC(Oc2ccc(Nc3ncc(-c4ccc(C(N)=O)c(F)c4)n4ccnc34)cc2)CC1` [Compound 149] was tested. Which EC50 did it give?
**A.** > 1 µM

**Q.** For `O=C(NCCN1CCOCC1)c1ccc(Nc2ncc(-c3cn[nH]c3)n3ccnc23)cc1` [Compound 53], which EC50 is on record?
**A.** > 1 µM

**Q.** `CN1CCN(c2ccc(Nc3ncc(-c4ccc(C(N)=O)cc4)n4ccnc34)cc2)CC1` [Compound 143] was tested. Which EC50 did it give?
**A.** 0.501 to 1 µM

**Q.** For `Cc1cc(C(N)=O)ccc1-c1cnc(Nc2ccc(N3CCN(C)CC3)cc2)c2nccn12` [Compound 120], which EC50 is on record?
**A.** > 1 µM
